# Legend:
# [1] = tested on: Staphylococcus epidermidis; experiment: (§1) Permeability of Bodipy-tagged compound across Staphylococcus epidermidis RP62A biofilms with 223 micrometer radial dimensions and 153 micrometer orthogonal dimensions assessed as time required for fluorescence intensity in centre of biofilm cluster to reach 50% of steady state maximum bulk fluid fluorescence intensity; assay type: ADME, organism-based; conditions: in vivo
# [2] = tested on: Staphylococcus epidermidis; experiment: as §1, with “181” for “223”, “103” for “153”; assay type: ADME, organism-based; conditions: in vivo
# [3] = tested on: Staphylococcus epidermidis; experiment: as §1, with “rhodamine-tagged” for “Bodipy-tagged”, “207” for “223”, “97” for “153”; assay type: ADME, organism-based; conditions: in vivo
# [4] = tested on: Staphylococcus epidermidis; experiment: Permeability of Bodipy-tagged compound across Staphylococcus epidermidis RP62A biofilms assessed as diffusion coefficient at 23 degC by time lapse confocal scanning microscopy; assay type: ADME, organism-based; conditions: in vivo
# [5] = Aqueous diffusion coefficient of rhodamine-tagged compound at 23 degC by time lapse confocal scanning microscopy; assay type: physicochemical; conditions: buffer
# [6] = tested on: Staphylococcus epidermidis; experiment: as §1, with “278” for “223”, “168” for “153”; assay type: ADME, organism-based; conditions: in vivo
# [7] = tested on: Staphylococcus epidermidis; experiment: Permeability of unlabeled compound across Staphylococcus epidermidis RP62A biofilms assessed as diffusion coefficient at 23 degC by time lapse confocal scanning microscop; assay type: ADME, organism-based; conditions: in vivo
# [8] = tested on: Staphylococcus epidermidis; experiment: Permeability of rhodamine-tagged compound across Staphylococcus epidermidis RP62A biofilms assessed as diffusion coefficient at 23 degC by time lapse confocal scanning microscopy; assay type: ADME, organism-based; conditions: in vivo
# [9] = tested on: Staphylococcus epidermidis; experiment: as §1, with “rhodamine-tagged” for “Bodipy-tagged”, “217” for “223”, “115” for “153”; assay type: ADME, organism-based; conditions: in vivo
# [10] = tested on: Staphylococcus epidermidis; experiment: as §1, with “rhodamine-tagged” for “Bodipy-tagged”, “94” for “223”, “63” for “153”; assay type: ADME, organism-based; conditions: in vivo
# [11] = Aqueous diffusion coefficient of Bodipy-tagged compound at 23 degC by time lapse confocal scanning microscopy; assay type: physicochemical; conditions: buffer
structure (smiles),measurement,setting,value
CCCCCCCCCC(=O)N[C@@H](Cc1c[nH]c2ccccc12)C(=O)N[C@H](CC(N)=O)C(=O)N[C@@H](CC(=O)O)C(=O)N[C@@H]1C(=O)NCC(=O)N[C@@H](CCCN)C(=O)N[C@@H](CC(=O)O)C(=O)N[C@H](C)C(=O)N[C@@H](CC(=O)O)C(=O)NCC(=O)N[C@H](CO)C(=O)N[C@@H]([C@H](C)CC(=O)O)C(=O)N[C@@H](CC(=O)c2ccccc2N)C(=O)O[C@@H]1C,Time,[1],60 s
same,Time,[2],67 s
same,Time,[3],40 s
same,D,[4],5.2 ×10⁻⁷ cm2/sec
same,D,[5],1.78 ×10⁻⁶ cm2/s
same,Time,[6],210 s
same,D,[7],0.78 ×10⁻⁶ cm2/s
same,D,[8],4.7 ×10⁻⁷ cm2/sec
same,Time,[9],140 s
same,Time,[10],26 s
same,D,[11],1.73 ×10⁻⁶ cm2/s
